Source: ChEMBL document CHEMBL1150279, “Non-peptide gonadotropin-releasing hormone receptor antagonists” (J Med Chem, 2008)
Values belong to the molecule of their own block, whether it stands above or below them.

What was measured:
[1] = system: Plasma; assay: Protein binding in rat plasma; format: ADME, cell-free
[2] = target: T1, Gonadotropin-releasing hormone receptor (Rattus norvegicus, UniProt P30969); assay: Binding affinity at rat GnRH receptor by competition binding assay
T1 sequence (P30969 whole entry): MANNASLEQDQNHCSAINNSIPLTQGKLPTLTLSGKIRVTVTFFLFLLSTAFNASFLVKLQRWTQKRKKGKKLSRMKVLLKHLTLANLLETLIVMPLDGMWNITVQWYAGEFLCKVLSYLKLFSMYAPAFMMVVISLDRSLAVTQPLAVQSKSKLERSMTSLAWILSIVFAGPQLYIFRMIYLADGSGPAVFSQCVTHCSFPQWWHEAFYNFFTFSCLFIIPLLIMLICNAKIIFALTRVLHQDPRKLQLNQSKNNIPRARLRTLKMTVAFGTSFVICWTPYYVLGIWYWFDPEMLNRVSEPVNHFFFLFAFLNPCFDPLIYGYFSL

[3] = target: T2, Gonadotropin-releasing hormone receptor (Homo sapiens, UniProt P30968); assay: (§1) Binding affinity at human GnRH receptor
T2 sequence (P30968 whole entry): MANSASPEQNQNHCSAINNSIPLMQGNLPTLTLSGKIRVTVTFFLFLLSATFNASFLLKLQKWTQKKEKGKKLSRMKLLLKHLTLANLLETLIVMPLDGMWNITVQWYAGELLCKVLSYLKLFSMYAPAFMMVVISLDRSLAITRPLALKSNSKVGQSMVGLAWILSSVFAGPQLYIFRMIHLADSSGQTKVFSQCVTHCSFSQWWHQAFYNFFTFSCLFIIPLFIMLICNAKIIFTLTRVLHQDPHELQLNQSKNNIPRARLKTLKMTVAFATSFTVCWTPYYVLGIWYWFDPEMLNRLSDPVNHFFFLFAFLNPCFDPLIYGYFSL

[4] = target: T2, Gonadotropin-releasing hormone receptor; assay: Binding affinity at human GnRH receptor by competition binding assay
[5] = target: T2, Gonadotropin-releasing hormone receptor; assay: Binding affinity at human GnRH receptor by calcium mobilization assay; format: functional
[6] = system: Rattus norvegicus; assay: Suppression of circulating luteinizing hormone in rat at 110 mg/kg, po relative to control; format: functional
[7] = target: T1, Gonadotropin-releasing hormone receptor; assay: Antagonist activity at rat GnRH receptor assessed as luteinizing hormone release in rat pituitary cells; format: functional, cell-based, Pituitary gland cell; conditions: read-out: pA2 (converted)
[8] = target: T1, Gonadotropin-releasing hormone receptor; assay: Binding affinity at rat GnRH receptor
[9] = Oral bioavailability in rat; format: ADME, organism-based; conditions: in vivo
[10] = Oral bioavailability in monkey; format: ADME, organism-based, Macaca mulatta; conditions: rhesus monkey, in vivo
[11] = system: Rhesus monkey; assay: Suppression of circulating luteinizing hormone in monkey; format: functional, Macaca mulatta
[12] = Tmax in postmenopausal women at 5 to 200 mg, po; format: ADME, organism-based; conditions: female, human, in vivo
[13] = Half life in postmenopausal women at 5 to 200 mg, po; format: ADME, organism-based; conditions: female, human, in vivo
[14] = Binding affinity to alpha1 adrenergic receptor
[15] = target: T1, Gonadotropin-releasing hormone receptor; assay: Binding affinity at rat GnRH receptor by whole cell binding assay
[16] = target: 5-hydroxytryptamine receptor 2B (Homo sapiens) (UniProt P41595); assay: Binding affinity to 5HT2B receptor
5-hydroxytryptamine receptor 2B (Homo sapiens), sequence (P41595 whole entry): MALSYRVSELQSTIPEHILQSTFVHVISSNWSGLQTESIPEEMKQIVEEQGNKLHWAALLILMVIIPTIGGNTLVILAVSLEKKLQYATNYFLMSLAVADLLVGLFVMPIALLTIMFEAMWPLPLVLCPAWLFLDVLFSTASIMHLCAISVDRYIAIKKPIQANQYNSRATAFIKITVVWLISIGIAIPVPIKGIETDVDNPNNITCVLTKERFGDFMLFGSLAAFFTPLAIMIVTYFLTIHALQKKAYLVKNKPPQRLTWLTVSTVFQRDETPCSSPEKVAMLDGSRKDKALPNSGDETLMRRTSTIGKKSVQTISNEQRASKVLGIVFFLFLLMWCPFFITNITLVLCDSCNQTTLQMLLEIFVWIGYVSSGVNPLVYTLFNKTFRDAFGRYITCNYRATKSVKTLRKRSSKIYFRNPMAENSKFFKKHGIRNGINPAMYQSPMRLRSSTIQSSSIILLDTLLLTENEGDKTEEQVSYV

[17] = target: T3, Gonadotropin-releasing hormone receptor (Macaca mulatta, UniProt Q8SPZ1); assay: Binding affinity at monkey GnRH receptor
T3 sequence (Q8SPZ1 whole entry): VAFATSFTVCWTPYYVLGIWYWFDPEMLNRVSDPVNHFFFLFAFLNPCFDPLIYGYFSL

[18] = target: T3, Gonadotropin-releasing hormone receptor; assay: Activity at rhesus monkey GnRH receptor by inositol phosphate functional assay
[19] = target: T4, Gonadotropin-releasing hormone receptor (Homo sapiens) (UniProt P30968); assay: as §1
T4 sequence (whole entry): T2 sequence (P30968 whole entry)

[20] = Cmax in healthy male human at 10 mg; format: ADME, organism-based; parameters: dose 10 mg; conditions: in vivo
[21] = Binding affinity at cynomolgus monkey GnRH receptor expressed in CHO cells; format: cell-based, Macaca fascicularis
[22] = AUC (0 to 6 hrs) in cynomolgus monkey at 10 mg/kg, po; format: ADME, organism-based, Macaca fascicularis; parameters: time < 6 hr, dose 10 mg/kg, route oral; conditions: plasma
[23] = Cmax in healthy male human at 200 mg; format: ADME, organism-based; parameters: dose 200 mg; conditions: in vivo
[24] = Activity at cynomolgus monkey GnRH receptor expressed in CHO cells assessed as inhibition of arachidonic acid release; format: cell-based; conditions: Macaca fascicularis
[25] = system: Cynomolgus monkey; assay: Suppression of circulating luteinizing hormone in cynomolgus monkey at 10 mg/kg, po relative to baseline; format: functional, Macaca fascicularis
[26] = Inhibition of circulating luteinizing hormone in cynomolgus monkey pituitary cells; format: functional, Macaca fascicularis, Pituitary gland cell
[27] = AUC (0 to 8 hrs) in healthy male human at 10 mg; format: ADME, organism-based; parameters: dose 10 mg, time < 8 hr; conditions: plasma
[28] = AUC (0 to 8 hrs) in healthy male human at 200 mg; format: ADME, organism-based; parameters: dose 200 mg, time < 8 hr; conditions: plasma
[29] = system: Cynomolgus monkey; assay: Suppression of circulating luteinizing hormone in cynomolgus monkey at 30 mg/kg, po relative to baseline; format: functional, Macaca fascicularis

SMILES: FC(F)(F)c1nc2c(N3CCN(CCOc4cccc5[nH]c(=S)[nH]c45)CC3)cccc2[nH]1
- IC50 [4]: 800 nM

SMILES: C=C1C(Cl)=CC=C1c1c(C)n(Cc2c(F)cccc2F)c(=O)n(C[C@H](N)c2ccccc2)c1=O
- Ki [3]: 14 nM

SMILES: N[C@@H](Cn1c(=O)c(-c2ccccc2F)c2n(c1=O)C(c1ccccc1F)CS2)c1ccccc1 (stereo partly drawn)
- Ki [3]: 220 nM

SMILES: COc1cccc(-c2nn(Cc3c(F)cccc3C(F)(F)F)c(=O)n(C[C@H](N)c3ccccc3)c2=O)c1Cl
- Ki [3]: 2.3 nM

SMILES: COc1cccc(-c2nn(Cc3c(F)cccc3C(F)(F)F)c(=O)n(C[C@H](N)c3ccccc3)c2=O)c1F
- Ki [3]: 13 nM

SMILES: N[C@@H](Cn1c(=O)c(-c2ccccc2F)c2n(c1=O)[C@@H](c1ccccc1)CS2)c1ccccc1
- Ki [3]: 110 nM

SMILES: CCSc1nc2cc(NC(=O)C3CC3)ccc2n1C(C)C
- IC50 [5]: 10 µM

SMILES: CC[C@H]1OC(=O)[C@H](C)[C@@H](OC(=O)N2C(=O)OC[C@@H]2C)[C@H](C)[C@@H](O[C@@H]2O[C@H](C)C[C@H](N(C)CC3CC3)[C@H]2O)[C@@](C)(OC)C[C@@H](C)C(=O)[C@H](C)[C@H]2N(CCc3ccc(Cl)c(Cl)c3)C(=O)O[C@]12C
- Activity [6]: 20%
- Kb [7]: 1.58 nM

SMILES: N[C@@H](Cn1c(=O)c(Cc2c(F)cccc2F)nn(-c2ccccc2F)c1=O)c1ccccc1
- Ki [3]: 580 nM

SMILES: COc1cccc(-n2c(=O)c(Cc3c(F)cccc3F)nn(C[C@H](N)c3ccccc3)c2=O)c1
- Ki [3]: 110 nM

SMILES: COc1cccc(-c2c(C)n(Cc3c(F)cccc3F)c(=O)n(CC(C)(N)c3ccccc3)c2=O)c1F (stereo not drawn)
- Ki [3]: 23 nM

SMILES: CCSc1nc2cc(S(=O)(=O)NCc3ccccc3OC)ccc2n1Cc1ccccc1
- IC50 [5]: 3.4 µM

SMILES: CSc1ccc(CN2CCc3c(c(=O)n(CCN(C)CCc4ccccn4)c(=O)n3Cc3c(F)cccc3F)C2)cc1
- Ki [3]: 15 nM

SMILES: COc1cccc(-c2c(C)n(Cc3c(F)cccc3C(F)(F)F)c(=O)n(C[C@H](N)c3ccccc3)c2=O)c1F
- Ki [3]: 0.5 nM

SMILES: N[C@@H](Cn1c(=O)c(-c2ccccc2F)c2n(c1=O)C(c1ccccc1)CS2)c1ccccc1 (stereo partly drawn)
- Ki [3]: 230 nM

SMILES: Cc1c(-c2ccccc2F)c(=O)n(C[C@H](N)c2ccccc2)c(=O)n1Cc1ccccc1F
- Ki [3]: 19 nM

SMILES: COc1cccc(-c2c(C)n(Cc3c(F)cccc3F)c(=O)n(C[C@H](N)c3ccccc3)c2=O)c1F
- Activity [11]: 32%
- Tmax [12]: 24 min
- half-life [13]: 162 min

SMILES: COc1cccc(-c2c3n(c(=O)n(C[C@H](N)c4ccccc4)c2=O)C(c2ccccc2F)CS3)c1F (stereo partly drawn)
- Ki [3]: 40 nM

SMILES: N[C@@H](Cn1c(=O)c(-c2ccccc2F)c2n(c1=O)C(c1ccccc1F)CO2)c1ccccc1 (stereo partly drawn)
- Ki [3]: 230 nM

The next lines start with results.

- Activity [1]: 99.9%
- Ki [2]: 3.8 nM
SMILES: COc1cc(OC)c(NC(=O)c2ccc(Cc3cc4c(cc3C)C(C)(C)CCC4(C)C)o2)c(OC)c1

- Ki [3]: 0.2 nM
SMILES: COc1cccc(-c2c(C)n(Cc3c(F)cccc3S(C)(=O)=O)c(=O)n(C[C@H](N)c3ccccc3)c2=O)c1F

- IC50 [4]: 6.6 nM
SMILES: CCc1nc(C)c(CN2CCN(c3cccc4[nH]c(-c5ccc(C(C)(C)C)cc5)nc34)CC2)[nH]1

- Ki [3]: 4.4 nM
SMILES: COc1cccc(-c2c(C)n(Cc3c(F)cccc3[S+](C)[O-])c(=O)n(C[C@H](N)c3ccccc3)c2=O)c1F (stereo partly drawn)

- Ki [3]: 4.5 nM
SMILES: COc1cccc(-c2c3n(c(=O)n(C[C@H](N)c4ccccc4)c2=O)C(c2ccccc2F)CS3)c1Cl (stereo partly drawn)

- IC50 [8]: 0.2 nM
SMILES: Cc1cc(C)cc(-c2[nH]c3c(c2[C@H](C)CNCCc2ccc(-c4nnn[nH]4)cc2)CN(C(=O)Cc2c(F)cccc2C(F)(F)F)CC3)c1

- Ki [3]: 470 nM
SMILES: COc1cccc(-c2c(C)n(Cc3c(F)cccc3F)c(=O)n(C[C@H](C)N(C)CCc3ccccn3)c2=O)c1

- IC50 [5]: 41 µM
SMILES: CCCn1c(SCc2cc([N+](=O)[O-])ccc2OC)nc2cc(NC(=O)NC(C)(C)C)cc(C(=O)NC)c21

- IC50 [2]: 18 nM
- bioavailability [9]: 72%
- IC50 [4]: 1.6 nM
SMILES: CCn1cc(CN2CCN(c3cccc4[nH]c(-c5ccc(C(C)(C)C)cc5)nc34)CC2)c(=O)[nH]c1=O

- bioavailability [10]: 22%
SMILES: CN[C@@H](Cc1ccccc1)Cn1c(=O)c(-c2cccc(OC)c2F)c(C)n(Cc2c(F)cccc2F)c1=O

- IC50 [4]: 5.2 nM
SMILES: CC(C)(C)c1ccc(-c2nc3c(N4CCN(Cc5ccnc(S(C)(=O)=O)n5)CC4)cccc3[nH]2)cc1

- Activity [14]: 114 nM
- IC50 [15]: 1.7 nM
- Activity [16]: 165 nM
SMILES: Cc1cc(C)cc(-c2[nH]c3ccc(C(C)(C)C(=O)N4CC5CCC4CC5)cc3c2[C@H](C)CNCCc2ccncc2)c1

- Ki [17]: 0.5 nM
- IC50 [18]: 7 nM
- Activity [19]: 0.4 nM
SMILES: Cc1cc(-c2c(OCC[C@@H]3CCN3)c3cc(C(=O)Nc4ccncn4)c(Cl)cc3[nH]c2=O)cc(C)c1C

- Cmax [20]: 15 ng/mL
- IC50 [21]: 0.6 nM
- AUC(0-t) at 6 h [22]: 0.85 µM·h
- Cmax [23]: 274 ng/mL
- IC50 [24]: 10 nM
- AUC(0-t) at 8 h [27]: 173 ng·h/mL
- AUC(0-t) at 8 h [28]: 2560 ng·h/mL
SMILES: CONC(=O)Nc1ccc(-c2sc3c(c2CN(C)Cc2ccccc2)c(=O)n(-c2ccccc2)c(=O)n3Cc2c(F)cccc2F)cc1 [SUFUGOLIX]
- Activity [25]: 18%
- Activity [26]: 36 nM
- Activity [29]: 11%

- IC50 [5]: < 0.01 µM
SMILES: CC(C)(C)NC(=O)NCCc1nc2cc(S(=O)(=O)NCc3ccc(Cl)cc3)ccc2n1Cc1ccccc1
